Results from US4341895A (priority 1981, dated 1982).

Legend:
[1] = in vivo; cited from earlier work
[2] = test system: Bradykinin; assay: Bradykinin analgesic test; type: in vivo; details: rat
Description: (§1) The compounds of formula I and their acid-addition salts are useful as analgesic agents, as determined by standard tests performed on the compounds of formula I where R is ethoxycarbonyl and propionyl in the form of their p-toluenesulfonate salts.
(§2) ^a All activities are expressed in mg/kg s.c., free base.
^f G. Deffenu, L. Pegrassi and B. Lumachi, J. Pharm. Pharmacol. 18,
135 (1966); B. A. Berkowitz and E. L. Way, J. Pharmacol. Exp. Ther. 177,

[3] = test system: ACh; assay: ACh (acetylcholine) analgesic test, procedure of Collier et al.; type: in vivo; details: sc; mouse, as free base; range in parentheses; tested as p-toluenesulfonate salt
Description: as §1, §2
^e Procedure (in mouse) of H.O.J. Collier, L. C. Dineen, C. A. Johnso
and C. Schneider, Br. J. Pharmacol. Chemother. 32, 295 (1968).

[4] = Straub Tail observation; type: in vivo; details: mouse, s.c.; for locomotor activity (footnote i to Straub Tail): at 75 mg/kg (R = C2 H5 COO) or 30 & 60 mg/kg (R = C2 H5 CO)
Description: as §1, §2

[5] = Tail Flick (analgesic agonist activity); type: in vivo; details: sc; rat, as free base; tested as p-toluenesulfonate salt
[6] = test system: phenazocine; assay: Antagonist activity vs. phenazocine; type: in vivo; details: rat, s.c., as free base; doses in parentheses; tested as p-toluenesulfonate salt

Row | SMILES | analgesic activity [1] | depression (footnote h to Bradykinin ED50) ([2]; 10 mg/kg s.c.) | depression (footnote h to Bradykinin ED50) ([2]; 20 and 30 mg/kg s.c.) | ED50 ([2]; sc, as free base, range in parentheses, tested as p-toluenesulfonate salt) [mg/kg] | ED50 [3] [mg/kg] | Straub Tail (dose) ([4]; as free base, tested as p-toluenesulfonate salt) [mg/kg] | locomotor activity (footnote i to Straub Tail) [4] | ED50 [5] [mg/kg] | Antagonist activity vs. phenazocine [6]
1 | CN1[C@@H]2CC[C@H]1CC(C(=O)O)(c1ccccc1)C2 (stereo partly shown) [3-phenyl-3-carboxytropane] | reported to have analgesic activity |  |  |  |  |  |  |  | 
2 | CCOC(=O)N1[C@@H]2CC[C@H]1[C@H](O)[C@@H](NCc1ccccc1)C2 (relative stereo) [I (R = C2 H5 COO), Ethyl 3α-benzylamino-2β-hydroxy-1αH,5αH-nortropane-8-carboxylate] |  | Mild depression | depression | 21 | 6.9 | 75 | Increased locomotor activity | 56 ± 4 | inactive (10 & 80)
3 | CCC(=O)N1[C@@H]2CC[C@H]1[C@H](O)[C@@H](NCc1ccccc1)C2 (relative stereo) [I (R = C2 H5 CO), 3α-Benzylamino-8-propionyl-1αH,5αH-nortropan-2β-ol] |  |  |  |  | 16 |  | Increased locomotor activity | 44 ± 3.5 | inactive (10)
